{"source": "patent US20080280835A1", "about": "“Novel Use of Peptide Compounds For Treating Muscle Pain” (priority 2005, published 2008)", "key": {"[1]": {"system": "Wistar rats", "assay": "Mechanical hyperalgesia (Randall-Selitto paw pressure) in iodoacetate rat model of osteoarthritic pain", "assay_type": "in vivo", "conditions": "for paw pressure withdrawal threshold compared to iodoacetate/vehicle treated animals: day 3 after iodoacetate"}, "[2]": {"system": "Sprague Dawley rats", "assay": "TNF-induced muscle pressure hyperalgesia, gastrocnemius muscle (Randall-Selitto analgesimeter)", "assay_type": "in vivo, rat", "conditions": "for reversal of muscular mechanical hyperalgesia (withdrawal thresholds to pressure): 18 hours after TNF 1 μg into gastrocnemius, 30 to 60 minutes after drug; for Maximal Possible Effect (MPE) versus vehicle, muscle pressure: FIG. 2; for full reversal of the muscle hyperalgesia: doses tested i.p.: pregabalin 30 and 100 mg/kg, gabapentin 100 mg/kg", "description": "(§1) Intramuscular injection of tumor necrosis factor-alpha (TNF) was used as a model of muscular mechanical hyperalgesia, which occurs in the human fibromyalgia, myofascial pain syndrome, back pain or osteoarthritis.\n(§2) Mechanical withdrawal thresholds to muscle pressure were measured with an analgesimeter exerting pressure on the gastrocnemius muscle previously injected with TNF. Forelimb grip strength was measured with a digital grip force meter after TNF injection into the biceps brachii muscles.\n(§3) Adult male Sprague Dawley rats with a body weight of 250 g to 300 g were used (supplier: Charles River Sulzfeld Germany). Animals were group-housed (3 animals per cage) and maintained in a room with controlled temperature (21-22° C.) and a reversed light-dark cycle (12 h/12 h) with food and water available ad libitum. All experiments were approved by the Bavarian State animal experimentation committee and carried out in accordance with its regulations.\n(§4) Recombinant rat tumor necrosis factor alpha (herein referred to as TNF) was obtained from R&D Systems, Minneapolis, Minn., USA. TNF was diluted in 0.9% NaCl and used in a concentration of 1 μg in 50 μl. Injections were performed in short halothane narcosis with a 30 g needle bilaterally into the gastrocnemius or into the biceps brachii muscle. All rats were used to the behavioral tests before injections and baseline values were recorded over three test days.\nMechanical withdrawal thresholds to muscle pressure were measured with an analgesimeter (Ugo Basile, Comerio, Italy). The rat is allowed to crawl into a sock which helps the rat to relax. The hind limbs were positioned such that an increasing pressure could be applied onto the gastrocnemius muscle (maximum 250 g). The pressure needed to elicit withdrawal was recorded. Means of 3 trials for each hind limb were calculated (interstimulus interval of >30 sec). Only animals with a significant TNF effect were included for further analysis.\nRats were injected with TNF into the M. gastrocnemius at […]. 18 hours later, rats were tested for pressure hyperalgesia pre- and post-application of the drugs. Rats were tested for pressure hyperalgesia 30 to 60 minutes after drug administration.\n(§5) […] Injection volume of i.p. injections was 0.5 ml.\n(§6) Data are shown in graphs displaying means and SEMs. Pre- and post-treatment data were compared using ANOVA (Analysis Of Variance) and a Tukey post hoc test. Means of treatment groups were compared using a one-way ANOVA and Dunnett's post hoc Test. Maximal possible effects (MPE) were calculated for all types of treatment."}, "[3]": {"system": "Sprague Dawley rats", "assay": "TNF-induced reduction of forelimb grip strength, biceps brachii muscle", "assay_type": "in vivo, rat", "conditions": "for reversal of the TNF induced reduction of grip strength: 6 hours after TNF 1 μg into biceps brachii, 30 to 60 minutes after drug; for MPE versus vehicle, grip strength: FIG. 4; for dose at which the effect of TNF on grip strength is reversed / grip strength improved: i.p., grip strength test", "description": "as §1, §2, §3, §4\nGrip strength of the forelimbs was tested with a digital grip force meter (DFIS series, Chatillon, Greensboro, N.C., USA). The rat was positioned to grab the grid with the forelimbs and was gently pulled so that the grip strength could be recorded. Means of three trials were calculated. The effect of the TNF treatment was calculated for each animal separately and only animals with a significant TNF effect were included for further analysis.\nRats were injected with TNF into the M. biceps brachii at 8 am. 6 hours later, grip strength of the forelimbs was tested with a digital grip force meter. Drugs were applied, and grip strength was again tested after 30 to 60 minutes.\nas §5, §6"}, "[4]": {"system": "Wistar rats", "assay": "Tactile allodynia (von Frey filaments) in iodoacetate rat model of osteoarthritic pain", "assay_type": "in vivo"}, "[5]": {"conditions": "30 mg/kg p.o., day 7 after iodoacetate"}, "[6]": {"conditions": "3 mg/kg s.c., day 7 after iodoacetate"}}}
{"smiles": "O=C(O)Cc1ccccc1Nc1c(Cl)cccc1Cl", "note": "[diclofenac]", "values": [{"measurement": "paw pressure withdrawal threshold compared to iodoacetate/vehicle treated animals", "setting": "[1]; 30 mg/kg s.c.", "value": "increase in paw pressure withdrawal threshold"}, {"measurement": "mechanical hyperalgesia", "setting": "[1]; 30 mg/kg s.c., day 7 after iodoacetate", "value": "reduced mechanical hyperalgesia"}]}
{"smiles": "NCC1(CC(=O)O)CCCCC1", "note": "[gabapentin]", "values": [{"measurement": "reversal of muscular mechanical hyperalgesia (withdrawal thresholds to pressure)", "setting": "[2]; 100 mg/kg i.p.", "value": "significant reversal"}, {"measurement": "Maximal Possible Effect (MPE) versus vehicle, muscle pressure", "setting": "[2]; 100 mg/kg i.p.", "value": "significantly different from vehicle"}, {"measurement": "full reversal of the muscle hyperalgesia", "setting": "[2]", "value": "Neither pregabalin nor gabapentin lead to a full reversal"}, {"measurement": "reversal of the TNF induced reduction of grip strength", "setting": "[3]; 100 mg/kg i.p.", "value": "significant reversal"}, {"measurement": "MPE versus vehicle, grip strength", "setting": "[3]; 100 mg/kg i.p.", "value": "significantly different from vehicle"}, {"measurement": "dose at which the effect of TNF on grip strength is reversed / grip strength improved", "setting": "[3]", "value": 100, "unit": "mg/kg"}]}
{"smiles": "COC[C@@H](NC(C)=O)C(=O)NCc1ccccc1", "note": "[lacosamide, (R)-2-acetamido-N-benzyl-3-methoxy-propionamide]", "values": [{"measurement": "improvement of tactile allodynia", "setting": "[4]; 30 mg/kg p.o., day 3 after iodoacetate, 60 minutes after drug", "value": "improved"}, {"measurement": "improvement of tactile allodynia", "setting": "[4]; [5]", "value": "improved"}, {"measurement": "improvement of tactile allodynia", "setting": "[4]; lower doses (3 and 10 mg/kg p.o.)", "value": "showed a trend for such improvement"}, {"measurement": "Maximal Possible Effect (MPE) versus vehicle, muscle pressure", "setting": "[2]; 10 mg/kg i.p.", "value": "significantly different from vehicle"}, {"measurement": "reversal of muscular mechanical hyperalgesia (withdrawal thresholds to pressure)", "setting": "[2]; 30 mg/kg i.p.", "value": "complete reversal"}, {"measurement": "Maximal Possible Effect (MPE) versus vehicle, muscle pressure", "setting": "[2]; 30 mg/kg i.p.", "value": "significantly different from vehicle"}, {"measurement": "muscle hyperalgesia induced by TNF injection in the paw pressure test, dose dependence", "setting": "[2]; 3, 10, 30 mg/kg i.p.", "value": "dose dependently improves"}, {"measurement": "reversal of the TNF induced reduction of grip strength", "setting": "[3]; 10 mg/kg i.p.", "value": "significant reversal"}, {"measurement": "MPE versus vehicle, grip strength", "setting": "[3]; 10 mg/kg i.p.", "value": "significantly different from vehicle"}, {"measurement": "reversal of the TNF induced reduction of grip strength", "setting": "[3]; 30 mg/kg i.p.", "value": "significant reversal"}, {"measurement": "MPE versus vehicle, grip strength", "setting": "[3]; 30 mg/kg i.p.", "value": "significantly different from vehicle"}, {"measurement": "dose at which the effect of TNF on grip strength is reversed / grip strength improved", "setting": "[3]", "value": 10, "unit": "mg/kg"}, {"measurement": "paw pressure withdrawal threshold compared to iodoacetate/vehicle treated animals", "setting": "[1]; 3 mg/kg p.o.", "value": "increase in paw pressure withdrawal threshold"}, {"measurement": "mechanical hyperalgesia", "setting": "[1]; 3 mg/kg p.o., day 7 after iodoacetate", "value": "reduced mechanical hyperalgesia"}, {"measurement": "mechanical hyperalgesia", "setting": "[1]; 10 mg/kg p.o., day 7 after iodoacetate", "value": "reduced mechanical hyperalgesia"}, {"measurement": "mechanical hyperalgesia", "setting": "[1]; 10 mg/kg p.o., day 14 after iodoacetate", "value": "did not show a statistically significant effect"}, {"measurement": "mechanical hyperalgesia", "setting": "[1]; [5]", "value": "reduced mechanical hyperalgesia"}]}
{"smiles": "Cc1c(N(C)CS(=O)(=O)O)c(=O)n(-c2ccccc2)n1C", "note": "[metamizol]", "values": [{"measurement": "reversal of muscular mechanical hyperalgesia (withdrawal thresholds to pressure)", "setting": "[2]; 2 mg/kg i.p.", "value": "complete reversal"}, {"measurement": "Maximal Possible Effect (MPE) versus vehicle, muscle pressure", "setting": "[2]; 2 mg/kg i.p.", "value": "significantly different from vehicle"}, {"measurement": "reversal of the TNF induced reduction of grip strength", "setting": "[3]; 2 mg/kg i.p.", "value": "significant reversal"}, {"measurement": "MPE versus vehicle, grip strength", "setting": "[3]; 2 mg/kg i.p.", "value": "significantly different from vehicle"}]}
{"smiles": "CN1CC[C@]23c4c5ccc(O)c4O[C@H]2[C@@H](O)C=C[C@H]3[C@H]1C5", "note": "[morphine]", "values": [{"measurement": "improvement of tactile allodynia", "setting": "[4]; 3 mg/kg s.c., day 3 after iodoacetate", "value": "improved"}, {"measurement": "improvement of tactile allodynia", "setting": "[4]; [6]", "value": "improved"}, {"measurement": "paw pressure withdrawal threshold compared to iodoacetate/vehicle treated animals", "setting": "[1]; 3 mg/kg s.c.", "value": "increase in paw pressure withdrawal threshold"}, {"measurement": "mechanical hyperalgesia", "setting": "[1]; [6]", "value": "reduced mechanical hyperalgesia"}]}
{"smiles": "CC(C)C[C@H](CN)CC(=O)O", "note": "[pregabalin]", "values": [{"measurement": "reversal of muscular mechanical hyperalgesia (withdrawal thresholds to pressure)", "setting": "[2]; 30 mg/kg i.p.", "value": "significant reversal"}, {"measurement": "Maximal Possible Effect (MPE) versus vehicle, muscle pressure", "setting": "[2]; 30 mg/kg i.p.", "value": "significantly different from vehicle"}, {"measurement": "reversal of muscular mechanical hyperalgesia (withdrawal thresholds to pressure)", "setting": "[2]; 100 mg/kg i.p.", "value": "significant reversal"}, {"measurement": "Maximal Possible Effect (MPE) versus vehicle, muscle pressure", "setting": "[2]; 100 mg/kg i.p.", "value": "significantly different from vehicle"}, {"measurement": "full reversal of the muscle hyperalgesia", "setting": "[2]", "value": "Neither pregabalin nor gabapentin lead to a full reversal"}, {"measurement": "reversal of the TNF induced reduction of grip strength", "setting": "[3]; 100 mg/kg i.p.", "value": "significant reversal"}, {"measurement": "MPE versus vehicle, grip strength", "setting": "[3]; 100 mg/kg i.p.", "value": "significantly different from vehicle"}, {"measurement": "dose at which the effect of TNF on grip strength is reversed / grip strength improved", "setting": "[3]", "value": 100, "unit": "mg/kg"}]}
